Laboratory results published in ChEMBL document CHEMBL1201862, “PubChem BioAssay data set” (2004).
Calls of active or inactive are those of the source.

Experiments:
[1] = target: T1, Polyadenylate-binding protein 1 (Homo sapiens, UniProt P11940); assay: PABP1 MLLE–PAM2 binding inhibitor potency, dose response, biochemical, fluorescence polarization, FITC-PAM2 peptide (AID 602259); assay type: functional; settings: read-out: IC50_Mean
Aminopeptidase N = target: T2, Aminopeptidase N (Plasmodium falciparum FcB1/Columbia, UniProt O96935); assay: P. falciparum M1AAP inhibitors, biochemical, fluorogenic H-Leu-NHMec substrate, 1536-well (AID 1445); design: species or system Plasmodium falciparum 3D7, 3D7
T2 sequence (O96935 whole entry): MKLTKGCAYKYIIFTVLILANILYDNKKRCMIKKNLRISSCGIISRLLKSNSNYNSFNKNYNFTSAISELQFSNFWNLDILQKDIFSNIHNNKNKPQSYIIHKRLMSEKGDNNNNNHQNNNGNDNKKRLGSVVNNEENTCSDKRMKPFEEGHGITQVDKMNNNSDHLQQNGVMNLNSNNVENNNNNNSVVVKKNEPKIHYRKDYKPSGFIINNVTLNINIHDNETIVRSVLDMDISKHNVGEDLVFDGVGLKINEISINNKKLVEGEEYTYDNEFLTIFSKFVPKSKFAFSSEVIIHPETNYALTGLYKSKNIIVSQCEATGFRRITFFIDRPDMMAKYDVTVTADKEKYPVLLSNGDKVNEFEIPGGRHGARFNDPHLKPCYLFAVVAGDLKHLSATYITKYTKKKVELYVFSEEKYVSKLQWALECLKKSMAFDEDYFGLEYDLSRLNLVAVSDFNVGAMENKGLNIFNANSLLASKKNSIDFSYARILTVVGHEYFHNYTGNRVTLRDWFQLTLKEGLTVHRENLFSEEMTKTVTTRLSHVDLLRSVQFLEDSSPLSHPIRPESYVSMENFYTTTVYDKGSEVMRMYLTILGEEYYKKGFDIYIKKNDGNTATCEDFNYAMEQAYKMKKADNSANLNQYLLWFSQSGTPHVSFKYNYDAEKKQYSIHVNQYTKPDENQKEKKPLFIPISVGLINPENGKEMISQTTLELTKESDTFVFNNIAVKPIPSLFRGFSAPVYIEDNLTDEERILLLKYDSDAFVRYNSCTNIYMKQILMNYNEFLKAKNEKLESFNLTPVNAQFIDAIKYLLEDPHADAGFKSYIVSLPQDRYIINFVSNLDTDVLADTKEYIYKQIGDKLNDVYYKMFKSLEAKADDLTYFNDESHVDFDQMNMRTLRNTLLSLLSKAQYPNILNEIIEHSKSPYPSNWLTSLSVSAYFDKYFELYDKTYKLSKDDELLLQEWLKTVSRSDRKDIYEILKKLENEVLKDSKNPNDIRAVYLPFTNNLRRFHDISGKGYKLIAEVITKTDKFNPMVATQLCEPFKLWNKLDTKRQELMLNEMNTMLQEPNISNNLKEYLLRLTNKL

[2] = HEp-2 cell cytotoxicity, dose response, cytotoxicity control for RSV inhibitor project, HTS (AID 2410); assay type: functional; settings: human respiratory syncytial virus
[3] = target: T1, Polyadenylate-binding protein 1; assay: PABP1 MLLE–PAM2 interaction inhibitors, dose response, miRNA deadenylation inhibitor project, biochemical, fluorescence polarization, Cy5-PAM2 peptide, secondary (AID 602260); assay type: functional; settings: read-out: IC50_Mean
Leucine aminopeptidase = target: T3, Leucine aminopeptidase (Plasmodium falciparum 3D7, UniProt Q8IL11); assay: P. falciparum M17LAP inhibitors, primary screen, biochemical, fluorogenic H-Leu-NHMec substrate, 1536-well (AID 1619); assay type: functional
T3 sequence (Q8IL11 whole entry): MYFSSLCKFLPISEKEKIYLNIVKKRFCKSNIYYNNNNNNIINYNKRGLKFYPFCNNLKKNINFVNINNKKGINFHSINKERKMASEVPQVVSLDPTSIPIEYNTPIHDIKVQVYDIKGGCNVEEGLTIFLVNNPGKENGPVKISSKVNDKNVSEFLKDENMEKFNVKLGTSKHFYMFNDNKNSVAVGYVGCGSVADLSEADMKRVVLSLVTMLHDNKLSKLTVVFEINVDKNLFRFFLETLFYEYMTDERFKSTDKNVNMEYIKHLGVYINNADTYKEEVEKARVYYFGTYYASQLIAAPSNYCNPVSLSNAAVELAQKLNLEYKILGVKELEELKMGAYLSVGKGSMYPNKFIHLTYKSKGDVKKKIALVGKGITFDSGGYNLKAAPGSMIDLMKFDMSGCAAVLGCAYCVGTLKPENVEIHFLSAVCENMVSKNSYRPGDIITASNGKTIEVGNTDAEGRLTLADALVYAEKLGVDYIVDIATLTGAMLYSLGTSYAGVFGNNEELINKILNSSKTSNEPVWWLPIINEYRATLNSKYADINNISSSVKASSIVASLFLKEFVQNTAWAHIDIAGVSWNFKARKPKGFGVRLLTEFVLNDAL

Cytochrome P450 3A4 = Cytochrome P450 3A4 (Homo sapiens, UniProt P08684); settings: Potency;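 note: confirmatory qHTS run detecting inhibitors and substrates of CYP3A4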
Chain of Cytochrome P450 3A4 (P08684 whole entry): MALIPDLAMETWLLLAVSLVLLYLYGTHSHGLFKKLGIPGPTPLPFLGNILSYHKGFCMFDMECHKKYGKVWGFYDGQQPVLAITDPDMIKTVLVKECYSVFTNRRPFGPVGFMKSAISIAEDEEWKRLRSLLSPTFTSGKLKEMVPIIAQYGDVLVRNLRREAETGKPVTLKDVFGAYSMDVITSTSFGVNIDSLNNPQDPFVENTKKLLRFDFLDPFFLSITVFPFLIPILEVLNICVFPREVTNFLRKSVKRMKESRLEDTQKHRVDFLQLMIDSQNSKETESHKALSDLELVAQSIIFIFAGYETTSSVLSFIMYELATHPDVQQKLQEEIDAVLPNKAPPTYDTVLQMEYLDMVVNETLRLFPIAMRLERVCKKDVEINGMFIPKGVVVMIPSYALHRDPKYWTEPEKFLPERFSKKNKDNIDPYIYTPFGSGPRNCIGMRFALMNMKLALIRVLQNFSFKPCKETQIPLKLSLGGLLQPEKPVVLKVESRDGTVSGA

[4] = target: T4, Short transient receptor potential channel 4 (Mus musculus, UniProt Q9QUQ5); assay: mouse TRPC4 channel inhibitors, dose response, cell-based, HEK293 TRPC4/mu-opioid, Fluo-4 calcium (AID 434942); assay type: functional;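 note: potency of inhibitors blocking the TRPC4 calcium response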
T4 sequence (Q9QUQ5 whole entry): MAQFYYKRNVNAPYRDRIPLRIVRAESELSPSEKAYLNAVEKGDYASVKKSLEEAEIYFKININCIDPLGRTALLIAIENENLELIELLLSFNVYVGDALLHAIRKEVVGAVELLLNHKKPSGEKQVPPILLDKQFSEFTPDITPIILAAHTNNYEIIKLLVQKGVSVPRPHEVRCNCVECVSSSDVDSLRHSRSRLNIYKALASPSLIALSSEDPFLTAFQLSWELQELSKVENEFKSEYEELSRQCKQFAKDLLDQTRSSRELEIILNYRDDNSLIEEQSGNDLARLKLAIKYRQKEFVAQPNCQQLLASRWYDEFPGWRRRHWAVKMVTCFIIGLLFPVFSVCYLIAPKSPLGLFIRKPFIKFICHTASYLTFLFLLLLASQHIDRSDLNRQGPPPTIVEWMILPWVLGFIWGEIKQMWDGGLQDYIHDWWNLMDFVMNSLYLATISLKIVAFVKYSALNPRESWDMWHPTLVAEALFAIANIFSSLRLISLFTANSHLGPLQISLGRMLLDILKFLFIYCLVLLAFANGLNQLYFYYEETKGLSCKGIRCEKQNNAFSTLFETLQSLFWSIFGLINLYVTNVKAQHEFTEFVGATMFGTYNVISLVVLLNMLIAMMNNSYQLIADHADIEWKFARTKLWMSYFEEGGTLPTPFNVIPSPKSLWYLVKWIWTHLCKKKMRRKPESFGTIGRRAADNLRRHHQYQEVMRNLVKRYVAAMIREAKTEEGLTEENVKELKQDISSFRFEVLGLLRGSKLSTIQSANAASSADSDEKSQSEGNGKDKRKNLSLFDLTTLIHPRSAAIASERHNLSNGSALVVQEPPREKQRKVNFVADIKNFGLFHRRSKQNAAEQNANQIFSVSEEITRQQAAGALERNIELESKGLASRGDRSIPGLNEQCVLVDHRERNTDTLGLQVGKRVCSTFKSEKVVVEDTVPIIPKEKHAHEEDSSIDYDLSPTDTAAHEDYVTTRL

Streptokinase A = target: T5, Streptokinase A (Streptococcus pyogenes serotype M1, UniProt P10520); assay: S. pyogenes streptokinase expression inhibitors, potency, dose response, plasminogen activation absorbance, OD405 (AID 1914); assay type: functional, Streptococcus pyogenes M1 GAS;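 note: secreted streptokinase activity via plasminogen activation per viability signal from cell pellet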
T5 sequence (P10520 whole entry): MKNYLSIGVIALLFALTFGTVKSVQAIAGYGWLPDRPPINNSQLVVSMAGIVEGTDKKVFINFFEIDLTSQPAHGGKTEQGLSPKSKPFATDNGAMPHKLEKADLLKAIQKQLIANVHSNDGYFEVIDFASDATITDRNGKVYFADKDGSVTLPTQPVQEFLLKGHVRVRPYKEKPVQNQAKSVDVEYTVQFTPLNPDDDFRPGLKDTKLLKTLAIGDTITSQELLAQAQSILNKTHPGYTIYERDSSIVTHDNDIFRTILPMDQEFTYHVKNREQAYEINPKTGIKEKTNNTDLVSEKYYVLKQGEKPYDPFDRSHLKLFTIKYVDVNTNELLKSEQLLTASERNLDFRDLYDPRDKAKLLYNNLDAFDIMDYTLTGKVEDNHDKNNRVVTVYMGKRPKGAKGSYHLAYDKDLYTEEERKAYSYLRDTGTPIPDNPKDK

[5] = system: Streptococcus sp. 'group A'; assay: growth inhibition of control SK(-) GAS strain, dose response, counter-screen for streptokinase expression inhibitor project, luminescence, kanamycin, BacTiterGlo, confirmation (AID 1900); assay type: functional, organism-based
[6] = target: T6, DNA repair protein RAD52 homolog (Homo sapiens, UniProt P43351); assay type: functional, biochemical
T6 sequence (P43351 whole entry): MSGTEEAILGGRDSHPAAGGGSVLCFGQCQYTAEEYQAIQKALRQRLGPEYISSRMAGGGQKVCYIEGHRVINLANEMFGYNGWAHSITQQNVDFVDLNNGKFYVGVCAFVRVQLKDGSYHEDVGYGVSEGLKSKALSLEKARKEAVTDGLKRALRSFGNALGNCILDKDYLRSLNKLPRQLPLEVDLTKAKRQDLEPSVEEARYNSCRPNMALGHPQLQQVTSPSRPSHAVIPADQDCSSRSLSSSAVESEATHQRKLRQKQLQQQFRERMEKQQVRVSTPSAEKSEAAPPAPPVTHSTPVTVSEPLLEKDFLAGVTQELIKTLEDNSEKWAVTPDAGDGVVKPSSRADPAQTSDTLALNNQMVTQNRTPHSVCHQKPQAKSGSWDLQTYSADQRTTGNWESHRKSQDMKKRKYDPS

[7] = target: T7, Ubiquitin-conjugating enzyme E2 N (Homo sapiens, UniProt P61088); assay type: functional;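 note: Dose-response confirmation in a TR-FRET assay detecting UBC13-driven polyubiquitin chain formation, inhibition measured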
T7 sequence (P61088 whole entry): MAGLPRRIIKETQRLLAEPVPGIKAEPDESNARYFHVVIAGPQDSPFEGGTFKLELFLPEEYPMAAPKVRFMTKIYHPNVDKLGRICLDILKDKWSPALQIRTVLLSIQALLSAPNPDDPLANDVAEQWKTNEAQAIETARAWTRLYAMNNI

Nonstructural protein 1 = Nonstructural protein 1 (Influenza A virus, UniProt Q194T2); assay type: functional, Influenza A virus (A/California/07/2009(H1N1))
Chain of Nonstructural protein 1 (Q194T2 whole entry): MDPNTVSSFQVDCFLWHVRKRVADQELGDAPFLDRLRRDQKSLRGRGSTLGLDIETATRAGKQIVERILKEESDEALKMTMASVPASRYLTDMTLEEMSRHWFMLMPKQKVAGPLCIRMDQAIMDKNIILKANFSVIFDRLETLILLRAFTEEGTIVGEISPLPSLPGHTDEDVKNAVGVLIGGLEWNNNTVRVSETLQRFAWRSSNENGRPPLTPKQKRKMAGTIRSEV

Streptococcus = assay: Group A Streptococcus viability loss, dose response, counter-screen for streptokinase expression inhibitor project, luminescence, BacTiterGlo (AID 1915); assay type: functional, organism-based;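 note: potency for reduction of bacterial viability or growth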
[8] = target: DNA dC->dU-editing enzyme APOBEC-3A (Homo sapiens, UniProt P31941); assay: Dose Response confirmation of small molecule APOBEC3A DNA Deaminase Inhibitors via a fluorescence-based single-stranded DNA deaminase assay. [Related pubchem assays (depositor defined):AID493011, AID493024]; assay type: functional
Chain of DNA dC->dU-editing enzyme APOBEC-3A (P31941 whole entry): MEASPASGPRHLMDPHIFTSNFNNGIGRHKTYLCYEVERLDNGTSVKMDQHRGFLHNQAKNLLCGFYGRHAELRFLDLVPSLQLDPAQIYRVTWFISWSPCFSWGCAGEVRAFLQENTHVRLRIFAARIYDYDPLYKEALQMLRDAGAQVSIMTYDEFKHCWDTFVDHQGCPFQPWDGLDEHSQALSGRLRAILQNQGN

[9] = target: DNA dC->dU-editing enzyme APOBEC-3G (Homo sapiens, UniProt Q9HC16); assay type: functional;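 note: Dose-response counterscreen measuring inhibition of APOBEC3G DNA deaminase activity, run while confirming APOBEC3A inhibitors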
Chain of DNA dC->dU-editing enzyme APOBEC-3G (Q9HC16 whole entry): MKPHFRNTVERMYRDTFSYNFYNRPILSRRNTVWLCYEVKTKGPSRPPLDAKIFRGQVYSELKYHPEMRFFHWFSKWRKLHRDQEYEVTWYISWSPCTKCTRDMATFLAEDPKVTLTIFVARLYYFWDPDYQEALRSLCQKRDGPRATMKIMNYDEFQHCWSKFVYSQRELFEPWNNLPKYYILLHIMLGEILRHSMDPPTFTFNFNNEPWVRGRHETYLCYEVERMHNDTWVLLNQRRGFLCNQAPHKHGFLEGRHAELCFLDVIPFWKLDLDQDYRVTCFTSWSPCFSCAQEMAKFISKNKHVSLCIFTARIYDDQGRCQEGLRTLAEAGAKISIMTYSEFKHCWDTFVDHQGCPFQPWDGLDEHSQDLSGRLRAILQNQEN

[10] = target: T4, Short transient receptor potential channel 4; assay: mouse TRPC4 channel activators, dose response, cell-based, HEK293 TRPC4/mu-opioid, Fluo-4 calcium (AID 434937); assay type: functional

T1 sequence (P11940 whole entry): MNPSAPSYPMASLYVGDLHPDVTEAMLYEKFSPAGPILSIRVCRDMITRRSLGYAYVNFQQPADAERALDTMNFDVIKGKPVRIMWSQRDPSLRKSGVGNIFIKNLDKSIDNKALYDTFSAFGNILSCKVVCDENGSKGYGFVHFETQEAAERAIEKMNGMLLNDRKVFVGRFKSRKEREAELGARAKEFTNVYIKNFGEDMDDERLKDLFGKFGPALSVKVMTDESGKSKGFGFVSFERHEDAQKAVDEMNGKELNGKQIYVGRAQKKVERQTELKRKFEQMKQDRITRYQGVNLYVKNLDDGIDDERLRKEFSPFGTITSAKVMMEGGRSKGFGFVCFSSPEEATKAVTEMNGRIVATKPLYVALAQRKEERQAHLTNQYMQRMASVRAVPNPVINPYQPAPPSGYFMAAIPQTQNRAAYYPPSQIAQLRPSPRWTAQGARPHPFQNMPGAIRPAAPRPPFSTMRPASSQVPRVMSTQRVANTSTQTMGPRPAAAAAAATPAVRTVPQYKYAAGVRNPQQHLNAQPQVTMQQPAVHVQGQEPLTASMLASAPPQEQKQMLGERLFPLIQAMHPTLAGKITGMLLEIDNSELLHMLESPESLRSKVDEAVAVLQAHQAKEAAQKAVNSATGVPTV

Cc1ccc(S(=O)(=O)CCSc2cccc(C(=O)Nc3ccccc3C(=O)O)c2)cc1
IC50 [1]: > 66 µM (inactive) | IC50 (Aminopeptidase N): 34.3 µM (active) | CC50 [2]: 13.5 µM (active) | IC50 [3]: > 66 µM (inactive) | IC50 (Leucine aminopeptidase): 9.59 µM (active)

Cc1nc(NCc2ccccc2)c2nc(-c3ccccc3)n(CCN(C)C)c2n1
AC50 (Cytochrome P450 3A4): 12.6 µM (inconclusive)

O=C(CN1CCCCC1)N=Nc1c(O)[nH]c2ccccc12
EC50 [4]: 2.99 µM (active)

C[C@@H]1C=C[C@](Cc2ccccc2)(C(=O)NCCCNc2ncc(C(F)(F)F)cc2Cl)N1C(=O)c1ccccc1
AC50 (Cytochrome P450 3A4): 3.98 µM (inconclusive)

CCC1=C2CC[C@H]3C(=O)N(c4ccccc4)C(=O)[C@H]3[C@H]2[C@@]2(C)C(=O)N(CC(=O)OC)C(=O)N2C1=O
AC50 (Cytochrome P450 3A4): 15.8 µM (inconclusive)

COc1ccc(OC)c(NC(=O)C2C3C=CC(C3)C2C(=O)NCc2ccccn2)c1 (centres undefined)
IC50 (Aminopeptidase N): 89.5 µM (active)

O=C(O)c1ccc2c(c1)C1C=CCC1C(c1cc3c(cc1Br)OCO3)N2 (centres undefined)
IC50 (Aminopeptidase N): 11 µM (active)

COC(=O)[C@@H]1C[C@@]2(O)[C@@H](O)[C@@H](O)[C@@H](O)C[C@H]2N1CC1CCCCC1
AC50 (Cytochrome P450 3A4): 12.6 µM (inconclusive)

CN(C)CCCN=C(S)NCC(c1ccc(Cl)cc1Cl)c1c[nH]c2ccccc12 (centres undefined)
EC50 (Streptokinase A): > 150 µM (not active) | EC50 [5]: 5 µM (active) | AC50 [6]: 6.45 µM (active) | IC50 [7]: > 20 µM (inactive) | IC50 (Nonstructural protein 1): 65.8 µM (active) | EC50 (Streptococcus): 15.4 µM (active)

Cc1ncsc1CCOC(=O)c1cccc([N+](=O)[O-])c1
EC50 [4]: 1.68 µM (active)

Cc1cc(/C=C2\SC(=O)N(C)C2=O)c(C)n1-c1ccc(S(N)(=O)=O)cc1
IC50 [8]: 3.12 µM (active) | IC50 [9]: 4.58 µM (active)

CSC1=NC2=C(CCCC2)C2(CCCCC2)N1
EC50 [4]: 5.96 µM (active)

CC1(C)CC(N2CCOCC2)=CC(=[N+]2CCOCC2)C1
IC50 [8]: 2.59 µM (active) | IC50 [9]: 2.26 µM (active)

CCN1CCN(c2ccc(S(=O)(=O)N3CCCCC3)cc2NC(=O)Cc2ccccc2)CC1
IC50 [8]: 3.97 µM (active) | IC50 [9]: 5.57 µM (active)

COC(=O)C1=C(C)N(Cc2ccccc2)C(NCCCCO)=N[C@H]1c1ccccc1
IC50 [8]: 2.27 µM (active) | IC50 [9]: 5.13 µM (active)

Cc1c(C(=O)N(Cc2cccs2)C2CCS(=O)(=O)C2)oc2ccccc12 (centres undefined)
EC50 [4]: 1.68 µM (active) | EC50 [10]: 2.11 µM (active)

Cc1cc(S(=O)(=O)Nc2cccc(O)c2)c(C)s1
IC50 (Leucine aminopeptidase): 14.6 µM (active)

CCOc1ccc(NC(=O)COC(=O)c2cccnc2)cc1
IC50 (Leucine aminopeptidase): 27.4 µM (active)

Cc1ccc(-c2n[nH]c3c2C(c2ccccc2)N(c2ccc(C(=O)O)cc2)C3=O)cc1 (centres undefined)
IC50 (Aminopeptidase N): 30.4 µM (active)

Cn1cccc1/C=C1\SC(=S)N(NC(=O)c2ccccc2O)C1=O
IC50 (Aminopeptidase N): 44.6 µM (active)
